As usually defined, the melting point is the temperature of the solid-liquid transition.

This is an account of results in a melting point compilation (Tetko et al.; mined from patent text by program, amines drawn as free bases though some values may be those of a salt).

Consider `Cc1cc2c(cc1C)CCC(C(=O)O)=C2`, for which the melting point lay in the range of 222 to 223 °C.
For `COc1ccc(S/C(=C/C(=O)NO)CCCCc2ccccc2)cc1OC`, the melting point lay within 148 to 150 °C.
As for `CCCN(CCC)CCCCCOc1ccc2oc(-c3ccc(OC)cc3)cc(=O)c2c1`, the figure is 63 to 64 °C.
For `O=C(NC1CC=CC1)OCc1ccccc1`, the melting point lay within 56 to 57 °C.
In turn, `CC#CCOc1ccc(SC(C(=O)NO)c2ccc(OC)cc2)cc1` (configuration not stated) yielded a melting point of 156 °C.
For the compound `Cc1c(F)cccc1NC(=O)c1ccccc1CN1C(=O)C2(COc3cc4c(cc32)CCO4)c2ccccc21` (configuration not stated), the melting point is greater than 230 °C.
The value for `Cc1oc2ccccc2c1C(=O)NCc1ccc2c(Br)c(O)ccc2c1` was 179 to 181 °C; that for `CC(C#N)(Sc1nc2ccccc2s1)c1ccc(C(=O)c2cccs2)cc1` (configuration not stated) was 104 to 107 °C.
The compound `C[C@H]1CCCC(C)(C)[C@@H]1C(=O)c1ccc(C#N)c(F)c1` displayed a melting point of 53 to 56 °C.
Compound `Cc1ccc(C(=O)C(F)(F)S(=O)(=O)c2ccccc2)cc1` registered a melting point of 79 to 81 °C.
The value for `Nc1nc(-c2ccco2)c(C(=O)c2ccccn2)s1` was 206 to 207 °C; that for `O=c1cc(CBr)c2c(Cl)cc(Cl)cc2[nH]1` was 299 to 301 °C.
As for `Cc1ccc(C(=O)NC(Cc2cccc(Br)c2)C(=O)O)cc1` (configuration not stated), the figure is 196 to 197 °C; as for `Clc1ccc(NN=Cc2ccc(Oc3nn(Cc4ccccc4)c4ccccc34)o2)nn1`, 200 to 202 °C; as for `CCC(CC(=O)NC(=O)OC(C)(C)C)Nc1ccc(OC)cc1` (configuration not stated), 65 to 66 °C.
In turn, `COCCNc1nc(-n2ccnc2)nc2ccc(C(=O)OC)cc12` registered a melting point of 252 to 253 °C.
For `CC(C)Cn1cnc2c(N)nc3cnccc3c21`, the melting point fell in the range of 306 to 307 °C.
As to `CN1CCC(=O)C(c2cccc(C(F)(F)F)c2)C1` (configuration not stated), the melting point was 64 to 65 °C.
The compound `Cc1cn(C(C)(C)C(=O)N(C)C)nc1-c1ccc(Cl)c(Cl)c1` showed a melting point of 142 °C.
As to `CC(C)(C)NC1=NS(=O)(=O)c2ccc(Cl)cc2N1`, the melting point was 291 to 294 °C.
Compound `CCOC(=O)COc1cccc2c1CCc1sc(SC(c3ccccc3)c3ccccc3)nc1-2` registered a melting point of 124 to 126 °C.
With `CC1(C)CN(S(=O)(=O)c2ccccc2F)c2cccc(Br)c2O1`, the melting point lay in the range of 108 to 110 °C.
The value for `O=C1CCC(N2Cc3c(CNC(=O)c4cccc(Cl)c4)cccc3C2=O)C(=O)N1` (configuration not stated) was 266 to 268 °C.
As to `COc1ccc(N2CCC(=O)N(c3ccc(C)cc3)CC2)c(-c2ccc(N(C)C)cc2)n1`, the melting point was in the range of 174 to 175 °C.
Take `O=C1C(=Cc2ccncc2)C(=O)c2ccccc21`: the melting point fell in the range of 152 to 157 °C.
Compound `Cc1cccc(-c2c3c(cc4ccc5c(c24)OCO5)C(=O)NC3)c1` had a melting point of 244 to 246 °C.
As for `Cc1c(S(=O)(=O)C(F)(F)F)cnn1-c1c(Cl)cc(C(F)(F)F)cc1Cl`, the melting point lay in the range of 83 to 85 °C.
Turning to `CCOc1cc2cc3c(Nc4cc(OC)c(Cl)cc4C)c(C#N)cnc3cc2cc1OCCN(CC(N)=O)CC(N)=O`, the melting point was 168 to 170 °C.
Turning to `CC(C)(CO)CCCCCCCCCCCC(O)(CC(=O)O)CC(=O)O`, the melting point lay within 102 to 103 °C.
`O=C(O)c1cc(O)cc2nc3c(O)cccc3nc12` yielded a melting point greater than 300 °C.
In turn, `CC(C)(C)c1cc(C(=O)c2cccs2)cc(CN2CCOCC2)c1O` showed a melting point of 148 °C.
`COC(=O)c1ccc2c(c1)C(=O)C(C=C1C=CC=C(C(=O)O)C1)O2` (configuration not stated) yielded a melting point of 280 °C.
In turn, `CC1(C)CON(Cc2ccc(NC(=O)Cc3ccccc3C(=O)O)cc2)C1=O` showed a melting point of 164 to 166 °C.
With `NC(=O)c1n[nH]c(S(=O)(=O)c2ccc(Br)cc2)n1`, the melting point lay in the range of 130 to 136 °C.
For the compound `C(C#Cc1c2ccccc2cc2ccccc12)#Cc1c2ccccc2cc2ccccc12`, the melting point lay within 280 to 282 °C.
As for `CNC(=O)c1cnc(Cl)c(Cl)c1`, the figure is 134 to 138 °C; as for `C[C@H]1[C@H](O)C2(CC2)C(=O)N1c1ccc(C#N)c(C(F)(F)F)c1`, 109 to 110 °C; as for `Cc1cccc(Cl)c1C(=O)N[C@@H](Cc1ccc(-c2c(C(F)(F)F)cc(C)n(C)c2=O)cc1)C(=O)O`, 220 to 223 °C.
Turning to `O=c1[nH]c2ccc(-c3cccnc3)cc2cc1Br`, the melting point was in the range of 297 to 300 °C.
`CCOC(=O)CCCNCc1nn2c(-c3ccc(OC)cc3)nnc2c2ccccc12` showed a melting point of 103 to 105 °C.
In turn, `CC(=O)c1cc(N2CCCC2)ccc1NC(=O)c1ccc(OCc2ccccc2)cc1` came in with a melting point of 175 to 178 °C.
`O=C1c2ccccc2C(=O)N1OCc1ccco1` had a melting point of 145 °C.
As for `O=C(O)CC[C@H]1CC[C@H]2CN[C@H](C(=O)O)C[C@H]2C1` (racemic), the melting point lay in the range of 190 to 191 °C.
As to `CCOC(=O)Cc1ccc(-n2c(-c3cccnc3N)nc3ccc(-c4cccnc4)nc32)cc1`, the melting point is 155 to 157 °C.
As for `CC(=O)c1cc(C)c2c(n1)-c1ccccc1C2=O`, the figure is 170 to 172 °C; as for `CCOC(=O)c1cc(C(=O)NC)nc(C(=O)NC)c1N`, 185 to 186 °C; as for `Cc1ccc(Cc2cc3c(cc2/C=C/c2ccc(C(=O)O)cc2)C(C)(C)CCC3(C)C)cc1`, 216 to 217 °C.
Compound `COc1ccc(C(=O)O)c2c1OCCCO2` registered a melting point of 186 °C.
The compound `C[C@H]1C(=O)OCN1C(=O)OC(C)(C)C` gave a melting point of 64 to 67 °C.
In turn, `[N-]=[N+]=NCC(COC(C(F)(F)F)(C(F)(F)F)C(F)(F)F)(COC(C(F)(F)F)(C(F)(F)F)C(F)(F)F)C(=O)O` registered a melting point of 97 to 98 °C.
In turn, `COc1cc(Br)cc2c(N(C)C)cc(C)nc12` gave a melting point of 115 to 117 °C.
On to `Cc1c(-c2ccccc2)nc2ccc(NC(=O)c3cc4cc(F)ccc4n3Cc3cccc(F)c3)cn12`, for which the melting point was in the range of 258 to 259 °C.
Turning to `Brc1ccc(Cc2cc(Br)c(Cc3ccc(Br)cc3)cc2Br)cc1`, the melting point was 161 to 167 °C.
The value for `CN(C)S(=O)(=O)c1ccc(C#N)c(C(F)(F)F)c1` was 133 to 136 °C.
As to `CCc1nc(/C=C/c2cn(-c3ccccc3)nc2OCc2ccc(OCc3nc(-c4cccc(CC(=O)O)c4)oc3C)c(OC)c2)cs1`, the melting point fell in the range of 154 to 155 °C.
`Cc1cc(C2(c3ccc(Cl)cc3)OCCS2)ccc1NC(=O)c1cccc(I)c1C(=O)NC(C)C` (configuration not stated) had a melting point of 214 to 217 °C.
For `CCCCc1nc2cc(C(=O)O)cc(C(=O)O)c2n1Cc1ccccc1Cl`, the melting point was 299 to 301 °C.
In turn, `Cn1nc(-c2cccc(N3Cc4cc(C(C)(C)C)ccc4C3=O)c2CO)cc(Nc2ccn(C3CNC3)n2)c1=O` displayed a melting point of 202 to 204 °C.
The compound `CCCNC(=O)N=c1ccn(-c2ccccc2)nc1` yielded a melting point of 156 to 157 °C.
`O=C1CNc2ccccc2N1c1ccc(Cl)cc1` displayed a melting point of 196 to 199 °C.
The value for `CC(C)Oc1cccc(NC(=O)OCc2c(-c3ccccc3)c3cc(Cl)ccc3c(=O)n2C)c1` was 205 to 207 °C.
The value for `C=C1CS(=O)C2C(NC(=O)COc3ccccc3)C(=O)N2C1C(=O)OCc1ccc([N+](=O)[O-])cc1` (configuration not stated) was 200 to 201 °C.
